In ChEMBL document CHEMBL1159241, “Dihydrolicoisoflavone, a new isoflavanone from Swartzia polyphylla” (J Nat Prod, 1995) one finds IC50 data, which are given here for one compound.

This test in a line: Inhibition of protein kinase C.

For the compound `COc1ccc(-c2coc3cc(O)cc(O)c3c2=O)cc1` [BIOCHANIN], the concentration for half-maximal inhibition (IC50) (usually the concentration at which inhibition is half-maximal) was below 50 µg/mL.
